Assay results from patent publication US20240409585A1, “MACROCYCLIC IMMUNOMODULATORS” (priority 2021, published 2024).
Bridge positions count the residues as written; N and C are the ends. Square brackets hold non-standard residues; d marks the D form. Peptide text beside a SMILES is read from it. * marks the point of attachment. ξ: configuration not given here. Phe(3-CF3) = N[C@@H](Cc1cccc(C(F)(F)F)c1)C(=O)O; Phe(3-CONH2) = NC(=O)c1cccc(C[C@H](N)C(=O)O)c1; Phe(4-COOH) = N[C@@H](Cc1ccc(C(=O)O)cc1)C(=O)O; Asp(3,3-Me2) = CC(C)(C(=O)O)[C@H](N)C(=O)O; Bip = N[C@@H](Cc1ccc(-c2ccccc2)cc1)C(=O)O; Phe(3-CN) = N#Cc1cccc(C[C@H](N)C(=O)O)c1; Phe(3-F) = N[C@@H](Cc1cccc(F)c1)C(=O)O; Phe(3-Me) = Cc1cccc(C[C@H](N)C(=O)O)c1; d1Nal = N[C@H](Cc1cccc2ccccc12)C(=O)O; Val(3-OH) = CC(C)(O)[C@H](N)C(=O)O; 4Pal = N[C@@H](Cc1ccncc1)C(=O)O; 2Thi = N[C@@H](Cc1cccs1)C(=O)O; Cha = N[C@@H](CC1CCCCC1)C(=O)O; Cit = NC(=O)NCCC[C@H](N)C(=O)O; Thr(3ξ) = CC(O)[C@H](N)C(=O)O; Carboxymethyl = O=C(O)C*; NMeA = CN[C@@H](C)C(=O)O; Orn = NCCC[C@H](N)C(=O)O; Dab = NCC[C@H](N)C(=O)O; Dap = NC[C@H](N)C(=O)O

These compounds were tested against T1, PE-labeled human PD-L1-Ig binding to Jurkat cell line over-expressing human PD-1 (Jurkat-PD-1) (Homo sapiens, UniProt Q15116) (assay: Jurkat-PD-1 Cell Binding High-Content Screening Assay (CBA): Method 1). Details: Jurkat-hPD-1 cells, PE-labeled PD-L1-Ig 20 nM final; read-out: Jurkat HPDL1 PD1 IC50 (uM) (Method 1).
T1 construct: expressed in transfected cells; host or cells: Jurkat
T1 sequence (Q15116 25-288): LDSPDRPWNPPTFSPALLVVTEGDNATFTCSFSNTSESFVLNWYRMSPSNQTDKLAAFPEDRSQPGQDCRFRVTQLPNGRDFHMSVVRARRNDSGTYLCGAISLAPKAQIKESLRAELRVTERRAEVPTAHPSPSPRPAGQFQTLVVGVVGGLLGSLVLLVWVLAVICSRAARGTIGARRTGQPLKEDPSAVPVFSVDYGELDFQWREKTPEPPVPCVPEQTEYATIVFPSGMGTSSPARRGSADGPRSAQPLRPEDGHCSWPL

**Q.** For `CC[C@H](C)[C@@H]1NC(=O)[C@H](Cc2ccc(-c3ccccc3)cc2)NC(=O)[C@H](C(C)C)NC(=O)[C@H](Cc2c[nH]c3ccccc23)NC(=O)[C@H](CC(=O)O)NC(=O)[C@H](Cc2ccc(OCC(=O)O)cc2)NC(=O)[C@H](Cc2ccc(OCC(=O)O)cc2)NC(=O)CSC[C@@H](C(=O)N[C@@H](C)C(N)=O)NC(=O)[C@H]([C@@H](C)O)NC(=O)[C@H](C(C)C)NC(=O)[C@H](CC(C)C)NC(=O)[C@H](CCN)NC(=O)[C@@H](CC(C)C)NC(=O)[C@H](C)N(C)C1=O` [Compound 1568] ({CH2CO}-Y(Carboxymethyl)Y(Carboxymethyl)DWV[Bip]I[NMeA][dL][Dab]LVTCA-NH2; thioether N-14), which IC50 is on record?
**A.** The IC50 was 0.01 µM.

**Q.** With `CC(C)C[C@@H]1NC(=O)[C@H](CCN)NC(=O)[C@@H](CC(C)C)NC(=O)[C@H](C)N(C)C(=O)[C@H](CCC(=O)O)NC(=O)[C@H](Cc2ccc(-c3ccccc3)cc2)NC(=O)[C@H](C(C)C)NC(=O)[C@H](Cc2c[nH]c3ccccc23)NC(=O)[C@H](CC(=O)O)NC(=O)[C@H](Cc2ccc(O)cc2)NC(=O)[C@H](Cc2ccccc2)NC(=O)CSC[C@@H](C(=O)N[C@@H](C)C(N)=O)NC(=O)[C@H]([C@@H](C)O)NC(=O)[C@H](C(C)C)NC1=O` [Compound 1134] ({CH2CO}-FYDWV[Bip]E[NMeA][dL][Dab]LVTCA-NH2; thioether N-14) as the compound, how does the IC50 read?
**A.** The IC50 was 0.11 µM.

**Q.** How did the IC50 turn out when `Cc1cccc(C[C@@H]2NC(=O)[C@H](CC(=O)O)NC(=O)[C@H](Cc3ccc(OCC(=O)O)cc3)NC(=O)[C@H](Cc3cccs3)NC(=O)CSC[C@@H](C(=O)N[C@@H](CN)C(N)=O)NC(=O)[C@H](C(C)O)NC(=O)[C@H](C(C)(C)O)NC(=O)[C@H](CC3CCCCC3)NC(=O)[C@H](CCN)NC(=O)[C@@H](CC(C)C)NC(=O)[C@H](C)N(C)C(=O)[C@H](CCCNC(N)=O)NC(=O)[C@H](Cc3ccc(-c4ccccc4)cc3)NC(=O)[C@H](Cc3ccc(OCC(=O)O)cc3)NC2=O)c1` (stereo partly drawn) [Compound 2169] ({CH2CO}-[2Thi]Y(Carboxymethyl)D[Phe(3-Me)]Y(Carboxymethyl)[Bip][Cit][NMeA][dL][Dab][Cha][Val(3-OH)][Thr(3ξ)]C[Dap]-NH2; thioether N-14) was run?
**A.** The IC50 was 0.01 µM.

**Q.** With `CC(C)C[C@@H]1NC(=O)[C@H](CCCN)NC(=O)[C@@H](Cc2cccc3ccccc23)NC(=O)[C@H](C)N(C)C(=O)[C@H](CCCNC(=N)N)NC(=O)[C@H](Cc2ccc(-c3ccccc3)cc2)NC(=O)[C@H](C(C)C)NC(=O)[C@H](Cc2c[nH]c3ccccc23)NC(=O)[C@H](CC(=O)O)NC(=O)[C@H](Cc2ccc(O)cc2)NC(=O)[C@H](CC(N)=O)NC(=O)CSC[C@@H](C(=O)N[C@@H](C)C(N)=O)NC(=O)[C@H]([C@@H](C)O)NC(=O)[C@H](C(C)C)NC1=O` [Compound 1182] ({CH2CO}-NYDWV[Bip]R[NMeA][d1Nal][Orn]LVTCA-NH2; thioether N-14) as the compound, how does the IC50 read?
**A.** The IC50 was 0.3 µM.

**Q.** For `Cc1cccc(C[C@@H]2NC(=O)[C@H](CC(=O)O)NC(=O)[C@H](Cc3ccc(OCC(=O)O)cc3)NC(=O)[C@H](CCN)NC(=O)CSC[C@@H](C(=O)N[C@@H](CO)C(N)=O)NC(=O)[C@H](CO)NC(=O)[C@H](C(C)(C)O)NC(=O)[C@H](CC3CCCCC3)NC(=O)[C@H](CCN)NC(=O)[C@@H](CC(C)C)NC(=O)[C@H](C)N(C)C(=O)[C@H](Cc3ccc(C(=O)O)cc3)NC(=O)[C@H](Cc3ccc(-c4ccccc4)cc3)NC(=O)[C@H](Cc3cccc(C(N)=O)c3)NC2=O)c1` [Compound 2178] ({CH2CO}-[Dab]Y(Carboxymethyl)D[Phe(3-Me)][Phe(3-CONH2)][Bip][Phe(4-COOH)][NMeA][dL][Dab][Cha][Val(3-OH)]SCS-NH2; thioether N-14), which IC50 is on record?
**A.** Its IC50 is 0.04 µM.

**Q.** For `Cc1cccc(C[C@@H]2NC(=O)[C@H](CC(=O)O)NC(=O)[C@H](Cc3ccc(OCC(=O)O)cc3)NC(=O)[C@H](Cc3ccncc3)NC(=O)CSC[C@@H](C(=O)N[C@@H](CCN)C(N)=O)NC(=O)[C@H](CC(N)=O)NC(=O)[C@H](C(C)(C)O)NC(=O)[C@H](CC3CCCCC3)NC(=O)[C@H](CCN)NC(=O)[C@@H](CC(C)C)NC(=O)[C@H](C)N(C)C(=O)[C@H](Cc3ccc(OCC(=O)O)cc3)NC(=O)[C@H](Cc3ccc(-c4ccccc4)cc3)NC(=O)[C@H](Cc3ccc(OCC(=O)O)cc3)NC2=O)c1` [Compound 2191] ({CH2CO}-[4Pal]Y(Carboxymethyl)D[Phe(3-Me)]Y(Carboxymethyl)[Bip]Y(Carboxymethyl)[NMeA][dL][Dab][Cha][Val(3-OH)]NC[Dab]-NH2; thioether N-14), which IC50 is on record?
**A.** The IC50 was 0.03 µM.

**Q.** `Cc1cccc(C[C@@H]2NC(=O)[C@H](CC(=O)O)NC(=O)[C@H](Cc3ccncc3)NC(=O)[C@H](Cc3ccc(OCC(=O)O)cc3)NC(=O)CSC[C@@H](C(=O)N[C@@H](C)C(N)=O)NC(=O)[C@H](CO)NC(=O)[C@H](C(C)C)NC(=O)[C@H](CC(C)C)NC(=O)[C@H](CC(N)=O)NC(=O)[C@@H](C)NC(=O)[C@H](C)N(C)C(=O)[C@H](C(C)C)NC(=O)[C@H](Cc3ccc(-c4ccccc4)cc3)NC(=O)[C@H](CC(C)C)NC2=O)c1` [Compound 1583] ({CH2CO}-Y(Carboxymethyl)[4Pal]D[Phe(3-Me)]L[Bip]V[NMeA][dA]NLVSCA-NH2; thioether N-14) was tested. Which IC50 did it give?
**A.** The IC50 was 0.01 µM.

**Q.** `Cc1cccc(C[C@@H]2NC(=O)[C@H](CC(=O)O)NC(=O)[C@H](Cc3ccc(OCC(=O)O)cc3)NC(=O)[C@H](CCN)NC(=O)CSC[C@@H](C(=O)N[C@@H](CCN)C(N)=O)NC(=O)[C@H](CO)NC(=O)[C@H](C(C)(C)O)NC(=O)[C@H](CC3CCCCC3)NC(=O)[C@H](CCN)NC(=O)[C@@H](CC(C)C)NC(=O)[C@H](C)N(C)C(=O)[C@H](C(C)(C)C(=O)O)NC(=O)[C@H](Cc3ccc(-c4ccccc4)cc3)NC(=O)[C@H](Cc3ccc(OCC(=O)O)cc3)NC2=O)c1` [Compound 1846] ({CH2CO}-[Dab]Y(Carboxymethyl)D[Phe(3-Me)]Y(Carboxymethyl)[Bip][Asp(3,3-Me2)][NMeA][dL][Dab][Cha][Val(3-OH)]SC[Dab]-NH2; thioether N-14) was tested. Which IC50 did it give?
**A.** Its IC50 is 0.02 µM.

**Q.** How did the IC50 turn out when `CCNC(=O)[C@H](CCN)NC(=O)[C@@H]1CSCC(=O)N[C@@H](Cc2cccs2)C(=O)N[C@@H](Cc2cccc(C#N)c2)C(=O)N[C@@H](CC(=O)O)C(=O)N[C@@H](Cc2cccc(C)c2)C(=O)N[C@@H](Cc2cccc(F)c2)C(=O)N[C@@H](Cc2ccc(-c3ccccc3)cc2)C(=O)N[C@@H](Cc2ccc(OCC(=O)O)cc2)C(=O)N(C)[C@@H](C)C(=O)N[C@H](CC(C)C)C(=O)N[C@@H](CCN)C(=O)N[C@@H](CC2CCCCC2)C(=O)N[C@@H](C(C)(C)O)C(=O)N[C@@H](CO)C(=O)N1` [Compound 1841] ({CH2CO}-[2Thi][Phe(3-CN)]D[Phe(3-Me)][Phe(3-F)][Bip]Y(Carboxymethyl)[NMeA][dL][Dab][Cha][Val(3-OH)]SC[Dab]-NHEt; thioether N-14) was run?
**A.** The IC50 was 0.02 µM.

**Q.** How did the IC50 turn out when `CC(C)C[C@@H]1NC(=O)[C@H](Cc2c[nH]c3ccccc23)NC(=O)[C@H](CC(=O)O)NC(=O)[C@H](Cc2ccc(C(=O)O)cc2)NC(=O)[C@H](Cc2ccccc2)NC(=O)CSC[C@@H](C(=O)N[C@@H](C)C(N)=O)NC(=O)[C@H](CO)NC(=O)[C@H](C(C)C)NC(=O)[C@H](CC(C)C)NC(=O)[C@H](CCCCN)NC(=O)[C@@H](C)NC(=O)[C@H](C)N(C)C(=O)[C@H](CCC(=O)O)NC(=O)[C@H](Cc2ccc(-c3ccccc3)cc2)NC1=O` [Compound 1746] ({CH2CO}-F[Phe(4-COOH)]DWL[Bip]E[NMeA][dA]KLVSCA-NH2; thioether N-14) was run?
**A.** Its IC50 is 0.02 µM.

**Q.** With `CC(C)C[C@@H]1NC(=O)[C@H](CCCNC(=N)N)NC(=O)[C@@H](CC(C)C)NC(=O)[C@H](C)N(C)C(=O)[C@H](CCCNC(=N)N)NC(=O)[C@H](Cc2ccc(-c3ccccc3)cc2)NC(=O)[C@H](C(C)C)NC(=O)[C@H](Cc2cccc(C(F)(F)F)c2)NC(=O)[C@H](CC(=O)O)NC(=O)[C@H](Cc2ccc(O)cc2)NC(=O)[C@H](CC(N)=O)NC(=O)CSC[C@@H](C(=O)N[C@@H](C)C(N)=O)NC(=O)[C@H]([C@@H](C)O)NC(=O)[C@H](C(C)C)NC1=O` [Compound 1198] ({CH2CO}-NYD[Phe(3-CF3)]V[Bip]R[NMeA][dL]RLVTCA-NH2; thioether N-14) as the compound, how does the IC50 read?
**A.** Its IC50 is 0.06 µM.

**Q.** How did the IC50 turn out when `CCNC(=O)[C@H](CCN)NC(=O)[C@@H]1CSCC(=O)N[C@@H]([C@@H](C)O)C(=O)N[C@@H](Cc2ccc(OCC(=O)O)cc2)C(=O)N[C@@H](CC(=O)O)C(=O)N[C@@H](Cc2cccc(C)c2)C(=O)N[C@@H](Cc2cccc(F)c2)C(=O)N[C@@H](Cc2ccc(-c3ccccc3)cc2)C(=O)N[C@@H](Cc2ccc(OCC(=O)O)cc2)C(=O)N(C)[C@@H](C)C(=O)N[C@H](CC(C)C)C(=O)N[C@@H](CCN)C(=O)N[C@@H](CC2CCCCC2)C(=O)N[C@@H](C(C)(C)O)C(=O)N[C@@H](CO)C(=O)N1` [Compound 1844] ({CH2CO}-TY(Carboxymethyl)D[Phe(3-Me)][Phe(3-F)][Bip]Y(Carboxymethyl)[NMeA][dL][Dab][Cha][Val(3-OH)]SC[Dab]-NHEt; thioether N-14) was run?
**A.** The IC50 was 0.02 µM.

**Q.** For `CC(C)C[C@@H]1NC(=O)[C@H](Cc2c[nH]c3ccccc23)NC(=O)[C@H](CC(=O)O)NC(=O)[C@H](Cc2ccc(O)cc2)NC(=O)[C@H](Cc2ccccc2)NC(=O)CSC[C@@H](C(=O)N[C@@H](C)C(N)=O)NC(=O)[C@H](CO)NC(=O)[C@H](CCN)NC(=O)[C@H](CC(C)C)NC(=O)[C@H](CC(N)=O)NC(=O)[C@@H](CC(C)C)NC(=O)[C@H](C)N(C)C(=O)[C@H](C(C)C)NC(=O)[C@H](Cc2ccc(-c3ccccc3)cc2)NC1=O` [Compound 1538] ({CH2CO}-FYDWL[Bip]V[NMeA][dL]NL[Dab]SCA-NH2; thioether N-14), which IC50 is on record?
**A.** Its IC50 is 0.1 µM.

**Q.** How did the IC50 turn out when `Cc1cccc(C[C@@H]2NC(=O)[C@H](CC(=O)O)NC(=O)[C@H](Cc3ccc(OCC(=O)O)cc3)NC(=O)[C@H](CN)NC(=O)CSC[C@@H](C(N)=O)NC(=O)[C@H](CO)NC(=O)[C@H](C(C)C)NC(=O)[C@H](CC(C)C)NC(=O)[C@H](CC(N)=O)NC(=O)[C@@H](CC(C)C)NC(=O)[C@H](C)N(C)C(=O)[C@H](CCCNC(N)=O)NC(=O)[C@H](Cc3ccc(-c4ccccc4)cc3)NC(=O)[C@H](CC(C)C)NC2=O)c1` [Compound 1644] ({CH2CO}-[Dap]Y(Carboxymethyl)D[Phe(3-Me)]L[Bip][Cit][NMeA][dL]NLVSC-NH2; thioether N-14) was run?
**A.** The IC50 was 0.06 µM.
